This is an account of results in ChEMBL document CHEMBL5385935, “Structural Characterization and Rat Aortic Vascular Reactivity of Bradykinin-Potentiating Peptides (BPPs) from the Snake Venom of Bothrops moojeni from Delta do Parnaíba Region, Brazil” (2024).

For test [1], the system named is Thoracic aorta. The experiment in a line: Vasorelaxant activity in Wistar rat endothelium-functional thoracic aorta assessed as reduction in phenylephrine-induced isometric contraction. It counts as tissue-based.
For test [2], the system named is Thoracic aorta. The experiment in a line: Vasorelaxant activity in Wistar rat endothelium-functional thoracic aorta assessed as reduction in phenylephrine-induced isometric contraction by measuring maximal efficacy relative to control.

SMILES strings stand for the structures. Non-standard residues stand in square brackets, D forms with d. Residues, ends and D or L forms follow the SMILES beside them. pGlu = O=C1CC[C@@H](C(=O)O)N1

The term Emax denotes the maximal effect, on the per cent scale that the assay sets. Consider `CC[C@H](C)[C@H](NC(=O)[C@H](CCC(=O)O)NC(=O)[C@@H]1CCCN1C(=O)CNC(=O)[C@@H]1CCCN1C(=O)[C@H](CCCNC(=N)N)NC(=O)[C@@H]1CCCN1C(=O)[C@H](Cc1c[nH]c2ccccc12)NC(=O)CNC(=O)CNC(=O)[C@@H]1CCC(=O)N1)C(=O)N1CCC[C@H]1C(=O)N1CCC[C@H]1C(=O)O` ([pGlu]GGWPRPGPEIPP-OH), for which the Activity result with Thoracic aorta [1] is “Dose-Dependent Effect”. For the same compound, the Emax in the test with Thoracic aorta [2] is 18.3%.
As for `CC(C)[C@H](NC(=O)[C@H](CCCCN)NC(=O)[C@@H]1CCCN1C(=O)CNC(=O)[C@@H]1CCCN1C(=O)[C@H](Cc1c[nH]c2ccccc12)NC(=O)[C@H](CCCCN)NC(=O)[C@@H]1CCC(=O)N1)C(=O)N1CCC[C@H]1C(=O)N1CCC[C@H]1C(=O)O` ([pGlu]KWPGPKVPP-OH), the Activity result in the test with Thoracic aorta [1] was “Dose-Dependent Effect”. The Emax in the test on Thoracic aorta [2] is 37.5%.
The like results for `CC[C@H](C)[C@H](NC(=O)[C@H](CCC(=O)O)NC(=O)[C@@H]1CCCN1C(=O)CNC(=O)[C@@H]1CCCN1C(=O)[C@H](CCCNC(=N)N)NC(=O)[C@@H]1CCCN1C(=O)[C@H](Cc1c[nH]c2ccccc12)NC(=O)[C@H](CCCCN)NC(=O)[C@@H]1CCC(=O)N1)C(=O)N1CCC[C@H]1C(=O)N1CCC[C@H]1C(=O)O` ([pGlu]KWPRPGPEIPP-OH) were, in that order, “Dose-Dependent Effect” and 32.8%.
